This note sets out measurements from ChEMBL document CHEMBL1126538, “A novel class of 1,3-oxathiolane nucleoside analogues having potent anti-HIV activity” (1993).

≈ marks a conversion by molar mass, not a printed value.

Holding throughout (assay type): functional
Test [1] relates to MT4. As to the kind of experiment: Cytotoxic activity against MT-4 cell line. The conditions noted are these: Homo sapiens, read-out: CD50 (the source's name).
Test [2] has as its system MT4. As to the kind of experiment: Inhibitory concentration against HIV-1 in MT-4 cell line. Conditions: Homo sapiens, read-out: ID50 (the source's name).
For test [3], the system named is MT4. As to the kind of experiment: Compound was tested for its inhibitory concentration against HIV-1 in MT-4 cell line. The conditions noted are these: Homo sapiens, read-out: ID50 (the source's name).

Consider `Nc1nc(O)c2ncn(C3COC(CO)S3)c2n1` (configuration not stated), for which the CC50 in the test with MT4 [1] was over 100 µg/mL. The IC50 in the test with MT4 [2] is over 100 µg/mL.

`Cc1cn([C@H]2C[C@H](N=[N+]=[N-])[C@@H](CO)O2)c(=O)[nH]c1=O` [ZIDOVUDINE]: the CC50 in the test on MT4 [1] is over 1 µg/mL. Further, the IC50 in the test on MT4 [2] was determined as 0.06 µg/mL (≈ 0.225 µM).

As to `Nc1ncnc2c1ncn2[C@@H]1COC(CO)S1` (some centres not stated), in the test with MT4 [1], the CC50 was over 100 µg/mL. Also, in the test on MT4 [2], the IC50 is over 100 µg/mL.

`Nc1nc(=O)n([C@@H]2COC(CO)S2)cc1F` (some centres not stated): in the test with MT4 [1], the CC50 is over 100 µg/mL. In addition, the IC50 with MT4 [2] was over 100 µg/mL.

In the case of `Nc1nc(=O)n(C2COC(CO)S2)cc1F` (configuration not stated), the CC50 in the test on MT4 [1] was over 100 µg/mL. The IC50 in the test with MT4 [2] came out at 2.5 µg/mL (≈ 10.1 µM).

Regarding `Nc1ncnc2c1ncn2[C@H]1CO[C@@H](CO)S1`, the CC50 in the test on MT4 [1] came out at 100 µg/mL (≈ 395 µM). Moreover, in the test with MT4 [2], the IC50 is 1.1 µg/mL (≈ 4.34 µM).

With `Nc1ncnc2c1ncn2[C@@H]1CO[C@H](CO)S1`, the CC50 with MT4 [1] turned out to be 100 µg/mL (≈ 395 µM). Also, the IC50 in the test on MT4 [2] was 50 µg/mL (≈ 197 µM).

As for `Nc1ccn([C@@H]2CS[C@H](CO)O2)c(=O)n1` [LAMIVUDINE], in the test on MT4 [1], the CC50 is over 100 µg/mL. In the test with MT4 [2], the IC50 worked out at 0.13 µg/mL (≈ 0.567 µM).

For `O=c1ccn([C@@H]2COC(CO)S2)c(=O)[nH]1` (some centres not stated), in the test on MT4 [1], the CC50 was over 100 µg/mL. In addition, the IC50 in the test on MT4 [2] is over 100 µg/mL.

Take `Cc1cn(C2COC(CO)S2)c(=O)[nH]c1=O` (configuration not stated): the CC50 in the test with MT4 [1] was over 100 µg/mL. Besides, the IC50 in the test with MT4 [2] was over 100 µg/mL.

As to `O=c1[nH]cnc2c1ncn2[C@H]1CC[C@@H](CO)O1` [DIDANOSINE], the CC50 with MT4 [1] came to 100 µg/mL (≈ 423 µM). In addition, the IC50 in the test on MT4 [2] came to 2.3 µg/mL (≈ 9.74 µM).

Turning to `Nc1ncnc2c1ncn2C1COC(CO)S1` (configuration not stated), in the test on MT4 [1], the CC50 worked out at 100 µg/mL (≈ 395 µM). The IC50 in the test on MT4 [2] came out at 2.1 µg/mL (≈ 8.29 µM).

Take `O=c1ccn(C2COC(CO)S2)c(=O)[nH]1` (configuration not stated): the CC50 with MT4 [1] was over 100 µg/mL. In the test on MT4 [2], the IC50 is over 100 µg/mL.

`Cc1cn([C@@H]2COC(CO)S2)c(=O)[nH]c1=O` (some centres not stated): the CC50 in the test on MT4 [1] was over 100 µg/mL. Moreover, the IC50 in the test on MT4 [2] is over 100 µg/mL.

With `Nc1ccn([C@@H]2COC(CO)S2)c(=O)n1` (some centres not stated), the CC50 in the test with MT4 [1] was over 100 µg/mL. The IC50 in the test with MT4 [2] is over 100 µg/mL.

Regarding `Nc1ccn(C2COC(CO)S2)c(=O)n1` (configuration not stated), the IC50 in the test on MT4 [3] is over 10 µg/mL. The CC50 in the test on MT4 [1] is 10 µg/mL (≈ 43.6 µM).
